In US8778966B2, “Quinolinone derivatives as PARP and tank inhibitors” (Janssen Pharmaceutica, NV, priority 2007, dated 2014):

Key:
Assay type in all cases: cell-based, human
[1] = test system: HCT116 cells; test: Antiproliferative activity, Alamar Blue assay, HCT116 cells; settings: Homo sapiens, HCT-116, HCT116 cells; read-out: HCT116 antiproliferative activity pIC50 (converted)
In short: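 Readout is resazurin fluorescence (ex 540, em 590 nm) after a 4 h dye incubation at 37 °C, following 4-day compound treatment of HCT116 cells plated 24 h earlier. Results expressed as % viable cells versus untreated; pIC50 derived from probit-fitted IC50.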

[2] = test system: HCT116 cells; test: Mitotic arrest assay on HCT116 cells (phospho-histone H3 Ser10); settings: lowest active dose; for minimal effective concentration: Homo sapiens, HCT-116, HCT116 cells, read-out: Mitotic arrest HCT116 LAD (converted)
Source text: Phosphorylation of histone H3 is tightly correlated with chromosome condensation during both mitosis and meiosis. The assay is a cellular immunosorbent assay wherein the sole antibody is labelled with a detectable conjugate. The phospho-histone H3 (ser10) antibody detects endogenous levels of histone H3 only when phosphorylated at serine 10. […] In parallel with antibody detection, the nuclei of the cells are stained with Hoechst 33342 for cell-counting. Cells are detected and analysed using the InCell Analyzer 1000 from GE Healthcare. Since both the antibody-detection as well as the Hoechst-staining are in the nucleus, the dual area object intensity algorithm is used for analysing the wells.
All compounds tested were dissolved in DMSO and further dilutions were made in culture medium. Final DMSO concentrations never exceeded 0.1% (v/v).
HCT116 cells (supplier: ATCC) (human colon carcinoma cell line) were cultivated in Mc Coy's 5 A medium (supplier: Gibco) supplemented with 10% foetal calf serum (FCS), 2 mM L-glutamine and gentamycin at 37° C. in a humidified incubator with 5% CO2.
HCT116 cells were seeded at 20.000 cells per well in a 96 well plate (black/clear bottom, poly-D-lysine coated, supplier Greiner), cultured overnight to adhere to the bottom of the plate and treated with compound for 6 hours at 37° C. in a humidified incubator. After incubation, the medium was removed and cells were fixed using 100 μl/well formaldehyde (Accustain®, Formaline solution 10% neutral buffered, contains 4% formaldehyde w/v, supplier: Sigma) was added. After incubation for 15 minutes at room temperature, the formaldehyde was removed and cells were incubated with methanol (−20° C.) for 15 minutes at room temperature. After incubation, cells were washed once with phosphate-buffered saline (PBS —CaCl2, —MgCl2, suppier: Gibco)/0.05% Tween 20. The anti-phospho-histone H3 (Ser10) Alexa Fluor 488 antibody (supplier: Cell signalling) is used for detection of the cells inmitosis. The antibody was diluted 1/50 in 5% bovine serum albumins (BSA) and 50 μl/well was used for incubation overnight at room temperature in the dark.
A 1/2000 dilution of Hoechtst 33342 (10 mg/ml, supplier: Invitrogen) was made and 100 μl/well was added for at least 30 minutes before acquiring images. The absorbance at dual wavelengths of 360/480 nm was measured using the InCell Analyzer 1000 from GE Healthcare and the results were then analyzed.
For each experiment, controls (containing no drug) and a blank incubation (containing no cells or drugs) were run in parallel. Analysis was done in triplicate. Low cell count wells were invalidated. The blank value was subtracted from all control and sample values and divided by the standard deviation of the measurements. The compounds were considered active when the obtained value (sigma) was >5. Herein the effects of test compounds are expressed as the lowest dose giving a sigma value of >5 (LAD) (see table F-2).

[3] = test system: PC-3 cells; test: Antiproliferative activity, Alamar Blue assay, PC-3 cells; settings: Homo sapiens, PC-3, PC3 cells; read-out: PC3 antiproliferative activity pIC50 (converted)
In short: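 Resazurin-based fluorescence (540 nm ex/590 nm em) measured after 4-day compound treatment plus 24 hrs dye incubation at 37° C. Cells plated at 4.5×10^3 cells/ml, adhered 24 hr first. pIC50 from probit-derived IC50 on % viable cells versus untreated, triplicate wells.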

SMILES | IC50 [1] [µM] | IC50 [3] [µM] | minimal effective concentration [2] [µM] | Mitotic arrest HCT116 LAD ([2]; HCT116 cells, the values are: pLAD (−log M lowest active dose))
CCc1cc2ccc(C(C)(C#N)Cc3cccc(CCC#N)c3)cc2[nH]c1=O (stereo not drawn) [Compound 165] | 0.631 | 1 | – | 6.5
CCc1cc2ccc(C(C)(C#N)CCOc3ccc(C(C)(C)C)cc3)cc2[nH]c1=O (stereo not drawn) [Compound 167] | > 10 | 7.94 | 1 | –

Further lines, with some results ahead:

IC50 [1] [µM] | IC50 [3] [µM] | SMILES | minimal effective concentration [2] [µM] | Mitotic arrest HCT116 LAD ([2]; HCT116 cells, the values are: pLAD (−log M lowest active dose))
> 10 | > 10 | CCc1cc2ccc(C(C)(C#N)CCOc3ccc4oc(C)c(C)c4c3)cc2[nH]c1=O (stereo not drawn) [Compound 162] | 3.16 | –
0.398 | 1 | CCc1cc2ccc(C(C)(C#N)CCOc3cccc4c3OCCO4)cc2[nH]c1=O (stereo not drawn) [Compound 163] | 1 | –
10 | 7.94 | CCc1cc2ccc(C(C#N)(CCOc3ccccc3)C3CC3)cc2[nH]c1=O (stereo not drawn) [Compound 166] | 1 | –
